Earlier results, collected in patent US20040266755A1, “Prodrugs of 1-(1-hydroxy-5-isoquinolinesulfonyl) homopiperazine” (Schering Aktiengesellschaft, priority 2003, published 2004).

Test system: Rho-kinase
Conditions: compared with fasudil; Shimokawa et al. (1999) Cardiovas. Res. 43:1138-1141

## O=S(=O)(c1cccc2c(O)nccc12)N1CCCNCC1 [Hydroxyfasudil, 1-(1-hydroxy-5-isoquinolinesulfonyl) homopiperazine]
  specificity of inhibitory effect on Rho-kinase: more specific inhibitory effect on Rho-kinase than fasudil
